Reference: ChEMBL document CHEMBL3739306, “Enantiomeric resolution of [(2,2-diphenyl-1,3-dioxolan-4-yl)methyl](2-phenoxyethyl)amine, a potent 1and 5-HT1Areceptor ligand: an in vitro and computational study” (Medchemcomm, 2015)

Legend:
[1] = target: T1, Alpha-1B adrenergic receptor (Rattus norvegicus) (UniProt P15823); test: Antagonist activity at alpha1B adrenoceptor in Wistar rat spleen assessed as phenylephrine-induced contractions after 30 mins
T1 sequence (whole entry): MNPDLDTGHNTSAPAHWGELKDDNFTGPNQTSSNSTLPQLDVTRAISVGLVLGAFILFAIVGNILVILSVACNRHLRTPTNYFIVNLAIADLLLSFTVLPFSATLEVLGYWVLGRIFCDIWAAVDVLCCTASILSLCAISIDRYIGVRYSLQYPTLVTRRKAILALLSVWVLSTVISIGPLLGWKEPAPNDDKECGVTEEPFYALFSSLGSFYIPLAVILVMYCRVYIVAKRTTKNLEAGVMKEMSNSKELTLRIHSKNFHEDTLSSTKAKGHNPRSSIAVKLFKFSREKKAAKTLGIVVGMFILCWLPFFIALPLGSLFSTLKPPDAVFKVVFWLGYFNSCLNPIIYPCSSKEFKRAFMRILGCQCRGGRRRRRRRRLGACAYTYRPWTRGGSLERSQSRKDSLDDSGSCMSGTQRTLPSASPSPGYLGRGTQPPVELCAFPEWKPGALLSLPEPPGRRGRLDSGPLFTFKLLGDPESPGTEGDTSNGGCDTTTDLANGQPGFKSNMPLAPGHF

Rattus norvegicus [2] = organism: Rattus norvegicus; test: Selectivity ratio of pA2 for alpha1D adrenoceptor in Wistar rat thoracic aorta to pKb for alpha1B adrenoceptor in Wistar rat spleen
CHO [3] = test: Selectivity index, ratio of pKi for human recombinant alpha1D adrenoceptor to pKi for human recombinant alpha1A adrenoceptor expressed in CHO cell membrane; type: cell-based
[4] = target: T2, Alpha-1D adrenergic receptor (Homo sapiens, UniProt P25100); test: Displacement of [3H]prazosin from human recombinant alpha1D adrenoceptor expressed in CHO cell membrane after 30 mins by liquid scintillation counting; type: cell membranes
T2 sequence (P25100 whole entry): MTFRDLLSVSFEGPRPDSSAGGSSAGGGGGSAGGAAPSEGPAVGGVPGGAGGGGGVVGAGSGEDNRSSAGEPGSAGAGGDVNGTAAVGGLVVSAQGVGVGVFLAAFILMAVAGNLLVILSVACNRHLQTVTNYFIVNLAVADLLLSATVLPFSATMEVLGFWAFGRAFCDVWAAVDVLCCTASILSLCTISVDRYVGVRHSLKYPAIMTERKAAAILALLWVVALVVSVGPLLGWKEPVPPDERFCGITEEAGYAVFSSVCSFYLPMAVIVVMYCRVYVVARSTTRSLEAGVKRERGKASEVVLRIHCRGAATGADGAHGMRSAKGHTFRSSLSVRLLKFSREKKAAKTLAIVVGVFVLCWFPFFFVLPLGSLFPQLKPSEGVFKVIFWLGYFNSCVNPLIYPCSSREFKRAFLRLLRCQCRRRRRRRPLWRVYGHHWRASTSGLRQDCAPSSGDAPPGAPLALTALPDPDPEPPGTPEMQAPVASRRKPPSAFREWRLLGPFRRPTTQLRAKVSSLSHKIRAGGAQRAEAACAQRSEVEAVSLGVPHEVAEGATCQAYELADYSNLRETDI

CHO [5] = test: Selectivity index, ratio of pKi for human recombinant alpha1D adrenoceptor to pKi for human recombinant alpha1B adrenoceptor expressed in CHO cell membrane; type: cell-based
CHO [6] = test: Selectivity index, ratio of pKi for human recombinant alpha1A adrenoceptor to pKi for human recombinant alpha1B adrenoceptor expressed in CHO cell membrane; type: cell-based
[7] = target: T3, 5-hydroxytryptamine receptor 1A (Homo sapiens) (UniProt P08908); test: Agonist activity at human recombinant 5-HT1A receptor expressed in HeLa cell membrane after 20 mins by [35S]GTPgammaS binding assay; type: functional, cell membranes
T3 sequence (whole entry): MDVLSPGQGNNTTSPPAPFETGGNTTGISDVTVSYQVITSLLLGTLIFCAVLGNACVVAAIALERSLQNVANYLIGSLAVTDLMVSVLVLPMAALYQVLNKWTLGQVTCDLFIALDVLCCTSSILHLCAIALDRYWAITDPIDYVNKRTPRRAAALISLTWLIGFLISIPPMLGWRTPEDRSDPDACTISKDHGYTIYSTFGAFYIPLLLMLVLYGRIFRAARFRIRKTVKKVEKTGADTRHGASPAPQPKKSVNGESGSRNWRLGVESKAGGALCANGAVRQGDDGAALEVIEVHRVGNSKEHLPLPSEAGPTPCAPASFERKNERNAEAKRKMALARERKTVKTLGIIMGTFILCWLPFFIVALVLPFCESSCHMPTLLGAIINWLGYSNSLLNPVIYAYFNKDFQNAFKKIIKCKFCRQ

Rattus norvegicus [8] = organism: Rattus norvegicus; test: Selectivity ratio of pA2 for alpha1D adrenoceptor in Wistar rat thoracic aorta to pKb for alpha1A adrenoceptor in Wistar rat vas deferans
[9] = target: T4, Alpha-1A adrenergic receptor (Rattus norvegicus) (UniProt P43140); test: Antagonist activity at alpha1A adrenoceptor in Wistar rat vas deferans assessed as noradrenaline-induced contractions after 30 mins
T4 sequence (whole entry): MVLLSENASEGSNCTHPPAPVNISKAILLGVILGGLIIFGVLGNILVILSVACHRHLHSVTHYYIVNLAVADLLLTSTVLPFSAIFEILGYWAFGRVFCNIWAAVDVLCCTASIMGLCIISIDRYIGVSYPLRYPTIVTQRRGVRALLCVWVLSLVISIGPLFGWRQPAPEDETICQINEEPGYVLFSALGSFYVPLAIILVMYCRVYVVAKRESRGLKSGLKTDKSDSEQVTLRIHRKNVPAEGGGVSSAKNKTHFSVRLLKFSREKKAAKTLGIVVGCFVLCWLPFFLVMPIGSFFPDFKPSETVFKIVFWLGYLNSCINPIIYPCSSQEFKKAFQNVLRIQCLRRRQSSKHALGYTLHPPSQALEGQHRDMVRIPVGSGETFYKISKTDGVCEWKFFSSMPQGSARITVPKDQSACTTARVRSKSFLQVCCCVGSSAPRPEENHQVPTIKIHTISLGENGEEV

CHO [10] = test: Selectivity index, ratio of pKi for human recombinant 5-HT1A receptor expressed in HeLa cell membrane to pKi for human recombinant alpha1D adrenoceptor expressed in CHO cell membrane; type: cell-based
Rattus norvegicus [11] = organism: Rattus norvegicus; test: Selectivity ratio of pKb for alpha1A adrenoceptor in Wistar rat vas deferans to pKb for alpha1B adrenoceptor in Wistar rat spleen
[12] = target: T5, Alpha-1D adrenergic receptor (Rattus norvegicus, UniProt P23944); test: Antagonist activity at alpha1D adrenoceptor in Wistar rat thoracic aorta assessed as noradrenaline-induced contractions after 30 mins; type: tissue-based; settings: read-out: pA2 (converted)
T5 sequence (P23944 whole entry): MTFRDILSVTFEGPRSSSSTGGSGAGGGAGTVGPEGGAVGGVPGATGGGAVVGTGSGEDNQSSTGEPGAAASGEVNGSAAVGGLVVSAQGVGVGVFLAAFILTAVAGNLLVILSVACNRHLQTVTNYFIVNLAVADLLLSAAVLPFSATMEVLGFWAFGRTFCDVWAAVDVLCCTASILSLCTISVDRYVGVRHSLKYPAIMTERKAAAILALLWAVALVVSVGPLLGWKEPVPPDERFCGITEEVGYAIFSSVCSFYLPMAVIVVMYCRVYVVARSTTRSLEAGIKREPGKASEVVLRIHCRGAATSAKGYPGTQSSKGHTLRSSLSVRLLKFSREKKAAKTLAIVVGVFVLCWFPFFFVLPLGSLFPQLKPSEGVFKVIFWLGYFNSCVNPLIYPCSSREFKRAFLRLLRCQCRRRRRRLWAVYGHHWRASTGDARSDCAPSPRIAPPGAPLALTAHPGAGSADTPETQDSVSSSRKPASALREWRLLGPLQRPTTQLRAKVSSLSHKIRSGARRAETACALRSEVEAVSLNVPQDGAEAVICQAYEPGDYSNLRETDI

[13] = target: T6, Alpha-1B adrenergic receptor (Homo sapiens, UniProt P35368); test: Displacement of [3H]prazosin from human recombinant alpha1B adrenoceptor expressed in CHO cell membrane after 30 mins by liquid scintillation counting; type: cell membranes
T6 sequence (P35368 whole entry): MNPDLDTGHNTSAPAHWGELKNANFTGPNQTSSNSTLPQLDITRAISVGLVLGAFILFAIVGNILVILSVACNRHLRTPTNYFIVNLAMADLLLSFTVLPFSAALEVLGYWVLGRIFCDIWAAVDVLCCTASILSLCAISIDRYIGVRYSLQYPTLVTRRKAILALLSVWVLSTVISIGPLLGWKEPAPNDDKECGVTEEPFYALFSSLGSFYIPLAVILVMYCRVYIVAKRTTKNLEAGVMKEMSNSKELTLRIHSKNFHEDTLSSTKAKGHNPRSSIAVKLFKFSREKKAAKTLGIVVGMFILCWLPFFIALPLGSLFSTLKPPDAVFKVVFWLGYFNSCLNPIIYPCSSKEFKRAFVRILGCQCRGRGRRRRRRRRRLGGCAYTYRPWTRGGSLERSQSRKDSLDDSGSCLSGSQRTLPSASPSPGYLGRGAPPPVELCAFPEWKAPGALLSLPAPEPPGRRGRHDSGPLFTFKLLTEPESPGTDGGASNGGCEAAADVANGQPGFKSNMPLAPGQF

[14] = target: T7, 5-hydroxytryptamine receptor 1A (Homo sapiens, UniProt P08908); test: Displacement of [3H]8-OH-DPAT from human recombinant 5-HT1A receptor expressed in HeLa cell membrane after 30 mins by liquid scintillation counting; type: cell membranes
T7 sequence (P08908 whole entry): T3 sequence (whole entry)

[15] = target: T8, Alpha-1A adrenergic receptor (Homo sapiens, UniProt P35348); test: Displacement of [3H]prazosin from human recombinant alpha1A adrenoceptor expressed in CHO cell membrane after 30 mins by liquid scintillation counting; type: cell membranes
T8 sequence (P35348 whole entry): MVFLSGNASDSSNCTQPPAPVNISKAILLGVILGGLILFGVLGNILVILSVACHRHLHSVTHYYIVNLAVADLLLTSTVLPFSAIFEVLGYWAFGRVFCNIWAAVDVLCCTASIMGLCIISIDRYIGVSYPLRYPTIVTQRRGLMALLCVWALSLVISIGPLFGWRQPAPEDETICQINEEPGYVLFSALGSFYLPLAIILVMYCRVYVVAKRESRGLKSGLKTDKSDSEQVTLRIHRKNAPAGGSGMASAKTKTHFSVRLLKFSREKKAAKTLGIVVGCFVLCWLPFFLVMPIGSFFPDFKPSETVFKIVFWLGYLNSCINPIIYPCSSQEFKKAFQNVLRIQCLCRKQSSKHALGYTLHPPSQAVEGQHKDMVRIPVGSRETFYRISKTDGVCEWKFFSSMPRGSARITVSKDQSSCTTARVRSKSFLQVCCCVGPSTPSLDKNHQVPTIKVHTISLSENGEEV

pKb [1] | Ratio (Rattus norvegicus [2]) | Ki [4] [nM] | pD2 [7] | Ratio (Rattus norvegicus [8]) | pKb [9] | Ratio (Rattus norvegicus [11]) | Kb [12] [nM] | Ki [13] [nM] | Ki [14] [nM] | Ki [15] [nM] | Emax [7] [%] | SMILES | Ratio pKi (CHO [3]) | Ratio pKi (CHO [5]) | Ratio pKi (CHO [6]) | Ratio pKi (CHO [10])
5.86 | 219 | 11.7 | 8.8 | 110 | 6.16 | 0.5 | 6.31 |  |  |  |  | c1ccc(OCCNCC2COC(c3ccccc3)(c3ccccc3)O2)cc1 (racemic) | 3 | 5 | 2 | 3
6.14 | 30 | 14.5 | 6.85 | 26 | 6.2 | 1 | 24.5 | 115 | 3.8 | 126 | 50 | c1ccc(OCCNC[C@H]2COC(c3ccccc3)(c3ccccc3)O2)cc1 | 9 | 8 | 1 | 4
6.51 | 34 | 22.9 | 7.45 | 23 | 6.67 | 1 | 5.13 | 79.4 | 3.02 | 30.2 | 65.3 | c1ccc(OCCNC[C@@H]2COC(c3ccccc3)(c3ccccc3)O2)cc1 | 1 | 3 | 3 | 8
